From ChEMBL document CHEMBL5725292, “Substituted benzamides and methods of use thereof” (2017) come the findings set out here.

The nature of the assay: Radioligand Binding Assay: Binding of this radioligand was preformed in 5 mL borosilicate glass test tubes at room temperature. Binding was initiated by adding membranes to increasing concentrations of [3H]compound in 100 mMNaCl, 20 mMTrisHCl, pH 7.4 buffer containing 0.01% w/v bovine serum albumin (BSA) for 18 h. Non-specific binding was determined in the presence of 1 uM unlabelled compound. …. Details: species or system Homo sapiens.

Structures are written as SMILES.

Description: Radioligand Binding Assay: Binding of this radioligand was preformed in 5 mL borosilicate glass test tubes at room temperature. […] Non-specific binding was determined in the presence of 1 uM unlabelled compound. […] [3H]compound bound to filters was quantified by liquid scintillation counting.

Broadly, the IC50 is the midpoint of a concentration-inhibition curve. As for `O=C(NS(O)(O)C1CC1)c1cc(C2CC2)c(CN2CCC(Oc3ccc(F)cc3Cl)CC2)cc1F`, the IC50 came to 14 nM. For `COC[C@H](c1cc(Cl)cc(Cl)c1)N1CCC[C@@H](Oc2cc(F)c(C(=O)NS(C)(=O)=O)cc2C2CC2)C1` the value was 6 nM.
